Here are results for two molecules from patent US20260209208A1, “PHENYL-PYRAZOLE CARBOXAMIDE COMPOUNDS” (Acrivon Therapeutics, Inc., priority 2022, published 2026).

Where only a bound is given, the exact number is not on record here.

Series [1] has as its target T1, recombinant human PMYT-1 (Myt1 kinase) (Homo sapiens, UniProt Q99640).
T1 construct: full length PMYT-1 was expressed by baculovirus in insect cells using a N-terminal GST tag; purchased Invitrogen A30984; host or cells: insect cells (baculovirus)
T1 sequence (Q99640 1-499): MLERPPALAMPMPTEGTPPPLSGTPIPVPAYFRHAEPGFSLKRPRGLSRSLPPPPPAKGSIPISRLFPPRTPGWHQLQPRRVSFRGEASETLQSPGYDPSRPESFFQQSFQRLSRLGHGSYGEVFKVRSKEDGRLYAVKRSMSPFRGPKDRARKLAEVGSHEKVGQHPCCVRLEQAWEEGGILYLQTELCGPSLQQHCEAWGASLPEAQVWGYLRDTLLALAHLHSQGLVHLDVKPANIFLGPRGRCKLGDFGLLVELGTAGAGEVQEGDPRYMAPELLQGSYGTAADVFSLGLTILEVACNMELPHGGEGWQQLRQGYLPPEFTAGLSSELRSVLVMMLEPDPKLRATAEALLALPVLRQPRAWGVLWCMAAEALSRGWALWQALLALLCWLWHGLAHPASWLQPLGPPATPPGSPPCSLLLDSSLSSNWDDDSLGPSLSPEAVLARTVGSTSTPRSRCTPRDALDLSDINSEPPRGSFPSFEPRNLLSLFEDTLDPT
Briefly: LanthaScreen Europium (Eu) Kinase Binding Assay for Myt1 kinase. The following applies: TR-FRET tracer 178 displacement, GST-tagged full length PMYT-1, 60 min, room temperature; mean IC50; read-out: LANTHA Kinase Binding for PMyt1. Background: In TR-FRET formats the signal depends on donor and acceptor labels being close together.

A further series has as its target T2, Myt1 Kinase (Homo sapiens, UniProt Q99640).
T2 construct: endogenous in cells; host or cells: DAOY medulloblastoma cells (ATCC)
T2 sequence (Q99640 1-499): T1 sequence (Q99640 1-499)
Put plainly: AlphaLISA SureFire Ultra Human Phospho-CDK1 (Thr14) target engagement assay in DAOY cells. It is filed as cell-based. The following applies: 4 h incubation, Cdk1 phosphorylated on threonine 14, read-out: TE Myt1 Kinase (AlphaLISA). In general terms: Alpha assays give light when donor and acceptor beads are brought close together.

For another series, the system named is DAOY cells. Briefly: Cell Titer Glo viability assay. In kind it is cell-based. The following applies: Homo sapiens, 144 hours, Cell Titer Glo 2.0. Here is the method: DAOY medulloblastoma cell line (ATCC) was cultured in Minimum Essential Medium Eagle supplemented with 10% fetal calf serum (Sigma), 1% Penicillin-Streptomycin and 10 mM HEPES buffer (HyClone). Cell cultures were kept in a humidified incubator at 37° C. and 5% CO2. Cells were routinely tested for Mycoplasma contamination.
DAOY cells were seeded at a density of 250 cells per well in tissue culture 384 well plates (Corning Costar). After overnight incubation, cells were incubated with test compounds at concentrations ranging from 0.17 to 10,000 nM. Viability compared to untreated control was assessed at 144 hours using Cell Titer Glo® 2.0 Viability Assay (Promega).
A general note: Cellular ATP, detected with luciferase, serves as a proxy for viable cell number.

Series [2] in a line: Oral bioavailability study in mice. In kind it is in vivo. The following applies: female CD-1 mice, single IV bolus 1 mg/kg vs oral gavage 3 mg/kg, dose normalized AUC0-∞. On the procedure: We compared the oral bioavailability of Compound 75:
(Compound A), which has a thiazolyl moiety in place of the furanyl moiety in Compound 75. Female CD-1 mice treated with a single intravenous bolus (IV; 1 mg/kg) or oral gavage (PO; 3 mg/kg) of one of the compounds. The percent bioavailability (% F) was calculated by dividing the dose normalized area under the plasma concentration curve (AUC0-∞) by the dose normalized IV plasma AUC0-∞.

In the case of `Cc1ccc(O)c(C)c1-n1nc(-c2ccco2)c(C(N)=O)c1N` [Compound 75, 5-amino-3-(2-furyl)-1-(3-hydroxy-2,6-xylyl)-4-pyrazolecarboxamide], the IC50 in series [1] is not above 10 nM. In addition, the EC50 is not above 250 nM at Myt1 Kinase and not above 500 nM in the series with DAOY cells. For the same molecule, the “Bioavailability (% F)” value in series [2] came to 64 % F.

For the molecule `Cc1ccc(O)c(C)c1-n1nc(-c2nccs2)c(C(N)=O)c1N` [Compound 122], in series [1], the IC50 was not above 10 nM. Further, the EC50 was not above 250 nM on Myt1 Kinase and not above 500 nM in the series with DAOY cells. For the same molecule, the “Bioavailability (% F)” value in series [2] is recorded as 32 % F.
